Reference: patent US6506766B1 (Abbott Laboratories, priority 1998, dated 2003)
Like-named read-outs stand apart in the source and are kept apart here.

Experiments:
[1] = target: T1, human glucocorticoid receptor-α [GRX] isoform (Homo sapiens, UniProt P04150); test: Radioligand binding with human glucocorticoid receptor cytosol ([3H]-dexamethasone competition)
T1 construct: host or cells: insect SF21 cells (baculovirus)
T1 sequence (P04150 1-777): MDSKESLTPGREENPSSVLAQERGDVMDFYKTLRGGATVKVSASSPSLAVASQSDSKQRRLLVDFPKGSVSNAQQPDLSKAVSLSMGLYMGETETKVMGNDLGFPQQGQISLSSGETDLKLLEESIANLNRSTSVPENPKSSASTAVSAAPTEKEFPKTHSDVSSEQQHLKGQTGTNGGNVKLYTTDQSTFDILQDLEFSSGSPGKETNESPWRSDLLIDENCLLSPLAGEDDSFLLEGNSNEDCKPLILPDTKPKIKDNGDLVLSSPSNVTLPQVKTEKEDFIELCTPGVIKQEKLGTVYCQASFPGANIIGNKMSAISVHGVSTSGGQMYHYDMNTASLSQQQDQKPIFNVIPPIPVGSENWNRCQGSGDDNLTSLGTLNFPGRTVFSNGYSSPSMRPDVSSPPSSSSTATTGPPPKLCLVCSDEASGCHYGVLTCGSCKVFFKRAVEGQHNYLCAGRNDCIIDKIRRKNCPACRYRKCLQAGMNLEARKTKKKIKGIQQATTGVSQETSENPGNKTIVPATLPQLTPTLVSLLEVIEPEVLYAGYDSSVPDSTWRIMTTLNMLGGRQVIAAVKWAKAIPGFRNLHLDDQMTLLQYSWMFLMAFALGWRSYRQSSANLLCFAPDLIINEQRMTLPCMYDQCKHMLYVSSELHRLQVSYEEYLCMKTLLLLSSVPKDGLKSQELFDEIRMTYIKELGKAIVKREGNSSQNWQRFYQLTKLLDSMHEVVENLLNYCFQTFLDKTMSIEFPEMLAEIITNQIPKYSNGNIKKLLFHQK

[2] = target: T2, human progesterone receptor-A [PRA] isoform (Homo sapiens, UniProt P06401); test: Radioligand binding with human progesterone receptor cytosol ([3H]-progesterone competition); conditions: PRA cytosol expressed in insect SF21 cells, [3H]Prog ~0.8 nM, 4° C. overnight; Ki by Cheng-Prusoff, KL ~4.5 nM; read-out: Ki (nM) PR
T2 construct: host or cells: insect SF21 cells (baculovirus)
T2 sequence (P06401 1-769 isoform P06401-2): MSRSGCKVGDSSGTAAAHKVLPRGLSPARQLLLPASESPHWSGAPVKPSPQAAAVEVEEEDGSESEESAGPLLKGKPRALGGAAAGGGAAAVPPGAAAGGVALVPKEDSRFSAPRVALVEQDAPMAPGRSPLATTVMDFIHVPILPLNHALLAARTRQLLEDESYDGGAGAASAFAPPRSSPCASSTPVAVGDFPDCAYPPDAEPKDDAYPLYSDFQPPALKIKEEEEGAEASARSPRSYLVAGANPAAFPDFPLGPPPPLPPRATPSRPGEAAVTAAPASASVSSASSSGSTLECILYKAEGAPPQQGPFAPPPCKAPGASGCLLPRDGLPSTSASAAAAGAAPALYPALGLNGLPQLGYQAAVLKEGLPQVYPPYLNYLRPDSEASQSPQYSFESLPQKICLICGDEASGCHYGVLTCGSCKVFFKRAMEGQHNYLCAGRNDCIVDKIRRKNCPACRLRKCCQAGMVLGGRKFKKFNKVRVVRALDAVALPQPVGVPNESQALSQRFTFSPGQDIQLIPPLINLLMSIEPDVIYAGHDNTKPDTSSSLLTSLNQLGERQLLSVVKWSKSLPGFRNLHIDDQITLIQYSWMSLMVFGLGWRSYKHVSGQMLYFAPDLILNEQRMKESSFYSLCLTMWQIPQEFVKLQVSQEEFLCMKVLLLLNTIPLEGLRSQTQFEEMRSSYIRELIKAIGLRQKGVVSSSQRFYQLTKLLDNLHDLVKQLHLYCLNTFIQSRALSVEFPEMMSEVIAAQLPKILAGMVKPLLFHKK

[3] = GRX cytosol expressed in insect SF21 cells, [3H]-Dex ~0.9 nM, 4° C. overnight, Ki by Cheng-Prusoff, KL ~[…], read-out: Ki (nM) GR

Compound | Ki [1, 3] [nM] | Ki [2] [nM] | Ki ([1]; Ki (nM) GR) [nM]
C=CCC1Oc2ccc(Br)c(OC)c2-c2ccc3c(c21)C(C)=CC(C)(C)N3 (centres unmarked) [Example 300, 10-Methoxy-9-bromo-5-(3-propenyl)-2,2,4-trimethyl-1H-2,5-dihydro-[1]benzopyrano[3,4-f]quinoline] | 5.3 | 34.4 | 
C=CCC1Oc2c(Br)cc(Br)c(OC)c2-c2ccc3c(c21)C(C)=CC(C)(C)N3 (centres unmarked) [Example 301, 7,9-Dibromo-10-methoxy-5-(3-propenyl)-2,2,4-trimethyl-1H-2,5-dihydro[1]benzopyrano[3,4-f]quinoline] | 16 | 113 | 
COc1c(Br)cc(Br)c2c1-c1ccc3c(c1C(C1C=CCCC1)O2)C(C)=CC(C)(C)N3 (centres unmarked) [Example 302, 7,9-Dibromo-5-[cyclohexen-3-yl]-10-methoxy-2,2,4-trimethyl-2,5-dihydro-1H-[1]benzopyrano[3,4-f]quinoline] | 5.9 | 99 | 
COc1c(Br)cc(Br)c2c1-c1ccc3c(c1C(C1C=C(C)CCC1)O2)C(C)=CC(C)(C)N3 (centres unmarked) [Example 303] | 4.9 | 58.5 | 
C=CCC1Oc2c(C=C)ccc(OC)c2-c2ccc3c(c21)C(C)=CC(C)(C)N3 (centres unmarked) [Example 304, 10-Methoxy-7-(2-ethenyl)-5-(3-propenyl)-2,2,4-trimethyl-1H-2,5-dihydro-[1]benzopyrano[3,4-f]quinoline] | 34.5 | 681 | 
C=CCC1Oc2c(C)ccc(OC)c2-c2ccc3c(c21)C(C)=CC(C)(C)N3 (centres unmarked) [Example 305, 10-Methoxy-7-methyl-5-(3-propenyl)-2,2,4-trimethyl-1H-2,5-dihydro-[1]benzopyrano[3,4-f]quinoline] | 2 | 6920 | 
C=CCC1Oc2c(C(C)=O)ccc(OC)c2-c2ccc3c(c21)C(C)=CC(C)(C)N3 (centres unmarked) [Example 306, 10-Methoxy-7-acetyl-5-(3-propenyl)-2,2,4-trimethyl-1H-2,5-dihydro-[1]benzopyrano[3,4-f]quinoline] | 717 | 4460 | 
C=CCC1Oc2c(C)cc(C)c(OC)c2-c2ccc3c(c21)C(C)=CC(C)(C)N3 (centres unmarked) [Example 308, 10-Methoxy-7-methyl-9-methyl-5-(3-propenyl)-2,2,4-trimethyl-1H-2,5-dihydro-[1]benzopyrano[3,4-f]quinoline] | 50.8 | 960 | 
COc1cccc2c1-c1ccc3c(c1C(c1cccc(CCO)c1)O2)C(C)=CC(C)(C)N3 (centres unmarked) [Example 314, 2,5-Dihydro-10-methoxy-5-(3-(2-hydroxyethyl)phenyl)-2,2,4-trimethyl-1H-[1]benzopyrano[3,4-f]quinoline] | 1.7 | ≥ 10000 | 
COc1cccc2c1-c1ccc3c(c1C(c1cccc(CCOS(C)(=O)=O)c1)O2)C(C)=CC(C)(C)N3 (centres unmarked) [Example 315, 2,5-Dihydro-10-methoxy-5-(3-(2-methanesulfonyloxyethyl)phenyl)-2,2,4-trimethyl-1H-[1]benzopyrano[3,4-f]quinoline] | 13 | ≥ 10000 | 
COc1cccc2c1-c1ccc3c(c1C(c1cccc(CCSC)c1)O2)C(C)=CC(C)(C)N3 (centres unmarked) [Example 316, 2,5-Dihydro-10-methoxy-5-(3-(2-methythioethyl)phenyl)-2,2,4-trimethyl-1H-[1]benzopyrano[3,4-f]quinoline] | 11 | ≥ 10000 | 
COc1cccc2c1-c1ccc3c(c1C(c1cccc(CCOC(=O)N(C)C)c1)O2)C(C)=CC(C)(C)N3 (centres unmarked) [Example 317, 2,5-Dihydro-10-methoxy-5-(3-(2-(N,N-dimethylaminocarbonyloxy)ethyl)phenyl)-2,2,4-trimethyl-1H-[1]benzopyrano[3,4-f]quinoline] | 6.5 | ≥ 10000 | 
COc1cccc2c1-c1ccc3c(c1C(c1cccc(CCN(C)C)c1)O2)C(C)=CC(C)(C)N3 (centres unmarked) [Example 318, 2,5-Dihydro-10-methoxy-5-(3-(2-(N,N-dimethylamino)ethyl)phenyl)-2,2,4-trimethyl-1H-[1]benzopyrano[3,4-f]quinoline] | 553 | ≥ 10000 | 
COc1cccc2c1-c1ccc3c(c1C(C1CC1)O2)C(C)=CC(C)(C)N3 (centres unmarked) [Example 319, 2,5-Dihydro-10-methoxy-5-cyclopropyl-2,2,4-trimethyl-1H-[1]benzopyrano[3,4-f]quinoline] | 16 | 492 | 
COc1cccc2c1-c1ccc3c(c1C(/C=C/c1ccccc1)O2)C(C)=CC(C)(C)N3 (stereo not drawn) [Example 321, trans 2,5-Dihydro-10-methoxy-5-(2-phenylethenyl)-2,2,4-trimethyl-1H-[1]benzopyrano[3,4-f]quinoline] | 44 | 2880 | 
COc1cccc2c1-c1ccc3c(c1C(C#Cc1ccccc1)O2)C(C)=CC(C)(C)N3 (centres unmarked) [Example 322, 2,5-Dihydro-10-methoxy-5-(2-phenylethynyl)-2,2,4-trimethyl-1H-[1]benzopyrano[3,4-f]quinoline] | 107 | 2300 | 
COc1cccc2c1-c1ccc3c(c1C(/C=C\c1ccccc1)O2)C(C)=CC(C)(C)N3 (stereo not drawn) [Example 323, cis 2,5-Dihydro-10-methoxy-5-(2-phenylethenyl)-2,2,4-trimethyl-1H-[1]benzopyrano[3,4-f]quinoline] | 428 | ≥ 10000 | 
COc1cccc2c1-c1ccc3c(c1C(C1=CCCCC1)O2)C(C)=CC(C)(C)N3 (stereo not drawn) [Example 325, trans 2,5-Dihydro-10-methoxy-5-(1-cyclohexenyl)-2,2,4-trimethyl-1H-[1]benzopyrano[3,4-f]quinoline] |  | ≥ 10000 | 24
C=CCC1Oc2cccc(-c3ccco3)c2-c2ccc3c(c21)C(C)=CC(C)(C)N3 (centres unmarked) [Example 326, 2,5-Dihydro-10-(2-furanyl)-5-(3-propenyl)-2,2,4-trimethyl-1H-[1]benzopyrano[3,4-f]quinoline] | 228 | ≥ 10000 | 
C=CCC1Oc2cccc(C#N)c2-c2ccc3c(c21)C(C)=CC(C)(C)N3 (centres unmarked) [Example 327, 2,5-Dihydro-10-cyano-5-(3-propenyl)-2,2,4-trimethyl-1H-[1]benzopyrano[3,4-f]quinoline] | 9.3 | 1460 | 
C=CCC1Oc2cccc(CN)c2-c2ccc3c(c21)C(C)=CC(C)(C)N3 (centres unmarked) [Example 331, 2,5-Dihydro-10-aminomethyl-5-(3-propenyl)-2,2,4-trimethyl-1H-[1]benzopyrano[3,4-f]quinolione] | 142 | ≥ 10000 | 
C=CCC1Oc2cccc(COC)c2-c2ccc3c(c21)C(C)=CC(C)(C)N3 (centres unmarked) [Example 332, 2,5-Dihydro-10-methoxymethyl-5-(3-propenyl)-2,2,4-trimethyl-1H-[1]benzopyrano[3,4-f]quinoline] | 18 | ≥ 10000 | 
C=Cc1cccc2c1-c1ccc3c(c1C(c1ccccc1)O2)C(C)=CC(C)(C)N3 (centres unmarked) [Example 333, 2,5-Dihydro-10-ethenyl-5-phenyl-2,2,4-trimethyl-1H-[1]benzopyrano[3,4-f]quinoline] | 5.6 | 3670 | 
C#Cc1cccc2c1-c1ccc3c(c1C(c1ccccc1)O2)C(C)=CC(C)(C)N3 (centres unmarked) [Example 334, 2,5-Dihydro-10-ethynyl-5-phenyl-2,2,4-trimethyl-1H-[1]benzopyrano[3,4-f]quinoline] | 9.5 | ≥ 10000 | 
CC1=CC(C)(C)Nc2ccc3c(c21)C(c1ccccc1)Oc1cccc(CO)c1-3 (centres unmarked) [Example 336, 2,5-Dihydro-10-(hydroxymethyl)-5-phenyl-2,2,4-trimethyl-1H-[1]benzopyrano[3,4-f]quinoline] | 9.5 | 1560 | 
